Test results reported in patent publication US8415336B2, “Cyclic (aza)indolizinecarboxamides, their preparation and their use as pharmaceuticals” (Sanofi, priority 2009, dated 2013).
Counter-ions that a name gives are not always drawn.

target: T1, Recombinant human renin (Homo sapiens, UniProt P00797); assay: Inhibition of renin (fluorogenic peptide substrate); format: biochemical; conditions: recombinant human renin 5 nM, fluorogenic peptide substrate 10 μM, 2 h at room temperature, Tris buffer pH 8; compounds tested as the obtained salt
T1 construct: purchased Cayman 10006217
T1 sequence (P00797 67-406): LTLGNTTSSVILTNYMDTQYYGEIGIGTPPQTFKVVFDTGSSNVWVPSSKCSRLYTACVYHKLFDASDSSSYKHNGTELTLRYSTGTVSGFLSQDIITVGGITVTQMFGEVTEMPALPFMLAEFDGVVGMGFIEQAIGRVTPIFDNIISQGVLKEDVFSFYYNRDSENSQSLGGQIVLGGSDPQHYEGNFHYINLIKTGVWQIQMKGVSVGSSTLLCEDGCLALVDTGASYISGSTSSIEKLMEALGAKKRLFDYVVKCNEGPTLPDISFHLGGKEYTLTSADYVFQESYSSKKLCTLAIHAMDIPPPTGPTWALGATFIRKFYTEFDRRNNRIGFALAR
Procedure: Recombinant human renin (Cayman, no. 10006217) at a concentration of 5 nM was incubated with the test compounds at various concentrations and the synthetic substrate Dabcyl-γ-Abu-Ile-His-Pro-Phe-His-Leu-Val-Ile-His-Thr-EDANS (Bachem, no. M-2050; Dabcyl means the 4-(4-dimethylamino-phenylazo)-benzoyl group and EDANS means the amide with 5-[(2-aminoethyl)amino]-naphthalene-1-sulfonic acid) at a concentration of 10 μM for 2 h at room temperature in 0.05 M Tris buffer (pH 8) containing 0.1 M NaCl, 2.5 mM EDTA and 1.25 mg/ml bovine serum albumin. The increase in fluorescence, which is due to fluorescence resonance energy transfer, was recorded at an excitation wavelength of 330 nm and an emission wavelength of 485 nm in a microplate spectrofluorometer. Inhibitory concentrations IC50 were calculated from the percentage of inhibition of renin activity as a function of the concentration of the test compound. […] Representative IC50 values, which were determined with the compounds in the form of the obtained salt indicated in the examples above, are listed in Table 4.

| IC50 | SMILES |
| --- | --- |
| 7.1 nM | Cc1c(F)cccc1Cc1c(-c2ccccc2)c2ccccn2c1C(=O)N1CCNCC1 [Example 1, [2-(3-Fluoro-2-methyl-benzyl)-1-phenyl-indolizin-3-yl]-piperazin-1-yl-methanone] |
| 38 nM | Cc1c(F)cccc1Cc1c(C2CCCCC2)c2ccccn2c1C(=O)N1CCNCC1 [Example 2, [1-Cyclohexyl-2-(3-fluoro-2-methyl-benzyl)-indolizin-3-yl]-piperazin-1-yl-methanone] |
| 2.6 nM | Cc1c(F)cccc1Cc1c(-c2ccccc2)c2ccccn2c1C(=O)N1CCN[C@@H](CC(=O)NCC2CCOCC2)C1 [Example 6, 2-{(S)-4-[2-(3-Fluoro-2-methyl-benzyl)-1-phenyl-indolizine-3-carbonyl]-piperazin-2-yl}-N-(tetrahydropyran-4-ylmethyl)-acetamide] |
| 2.6 nM | Cc1c(F)cccc1Cc1c(-c2ccccc2)c2ccccn2c1C(=O)N1CCN[C@@H](CC(=O)NCC(C)(C)C(N)=O)C1 [Example 7, 3-(2-{(S)-4-[2-(3-Fluoro-2-methyl-benzyl)-1-phenyl-indolizine-3-carbonyl]-piperazin-2-yl}-acetylamino)-2,2-dimethyl-propionamide] |
| 4.3 nM | Cc1c(F)cccc1Cc1c(-c2ccccc2)c2cccnn2c1C(=O)N1CCNCC1 [Example 9, [6-(3-Fluoro-2-methyl-benzyl)-5-phenyl-pyrrolo[1,2-b]pyridazin-7-yl]-piperazin-1-yl-methanone] |
| 8.2 nM | Cc1c(F)cccc1Cc1c(-c2ccccc2)c2cc(O)cnn2c1C(=O)N1CCNCC1 [Example 10, [6-(3-Fluoro-2-methyl-benzyl)-3-hydroxy-5-phenyl-pyrrolo[1,2-b]pyridazin-7-yl]-piperazin-1-yl-methanone] |
| 23 nM | Cc1c(F)cccc1Cc1c(C(=O)N2CCNCC2)c2ccccn2c1-c1ccccc1 [Example 11, [2-(3-Fluoro-2-methyl-benzyl)-3-phenyl-indolizin-1-yl]-piperazin-1-yl-methanone] |
| 360 nM | Cc1c(F)cccc1Cc1c(C(=O)N2CCNCC2)c2cc(Br)ccn2c1-c1ccccc1 [Example 12, [7-Bromo-2-(3-fluoro-2-methyl-benzyl)-3-phenyl-indolizin-1-yl]-piperazin-1-yl-methanone] |
| 64 nM | CNC(=O)c1ccc2c(-c3ccccc3)c(Cc3cccc(F)c3C)c(C(=O)N3CCNCC3)n2c1 [Example 13, 2-(3-Fluoro-2-methyl-benzyl)-1-phenyl-3-(piperazine-1-carbonyl)-indolizine-6-carboxylic acid methylamide] |

system: not given; assay: not given; conditions: not given

| melting point | SMILES |
| --- | --- |
| 263 °C | Cc1c(F)cccc1Cc1c(-c2ccccc2)c2ccccn2c1C(=O)N1CCNCC1 (as salt: hydrochloride) [Example 1, [2-(3-Fluoro-2-methyl-benzyl)-1-phenyl-indolizin-3-yl]-piperazin-1-yl-methanone] |
| 317 to 318 °C | Cc1c(F)cccc1Cc1c(C2CCCCC2)c2ccccn2c1C(=O)N1CCNCC1 (as salt: hydrochloride) [Example 2, [1-Cyclohexyl-2-(3-fluoro-2-methyl-benzyl)-indolizin-3-yl]-piperazin-1-yl-methanone] |
| 304 °C | O=C(c1c(Cc2c(F)cccc2Cl)c(-c2ccccc2)c2ccccn12)N1CCNCC1 (as salt: hydrochloride) [Example 3, [2-(2-Chloro-6-fluoro-benzyl)-1-phenyl-indolizin-3-yl]-piperazin-1-yl-methanone] |
| 205 °C | CNC(=O)c1ccn2c(C(=O)N3CCNCC3)c(Cc3cccc(F)c3C)c(-c3ccccc3)c2c1 (as salt: hydrochloride) [Example 4, 2-(3-Fluoro-2-methyl-benzyl)-1-phenyl-3-(piperazine-1-carbonyl)-indolizine-7-carboxylic acid methylamide] |
| 202 °C | Cc1c(F)cccc1Cc1c(-c2ccccc2)c2ccccn2c1C(=O)N1CCN[C@@H](CCO)C1 (as salt: hydrochloride) [Example 5, [2-(3-Fluoro-2-methyl-benzyl)-1-phenyl-indolizin-3-yl]-[(S)-3-(2-hydroxy-ethyl)-piperazin-1]-yl-methanone] |
| 147 °C | Cc1c(F)cccc1Cc1c(-c2ccccc2)c2ccccn2c1C(=O)N1CCN[C@@H](CC(=O)NCC2CCOCC2)C1 (as salt: hydrochloride) [Example 6, 2-{(S)-4-[2-(3-Fluoro-2-methyl-benzyl)-1-phenyl-indolizine-3-carbonyl]-piperazin-2-yl}-N-(tetrahydropyran-4-ylmethyl)-acetamide] |
| 174 to 176 °C | Cc1c(F)cccc1Cc1c(-c2ccccc2)c2ccccn2c1C(=O)N1CCN[C@@H](CC(=O)NCC(C)(C)C(N)=O)C1 (as salt: hydrochloride) [Example 7, 3-(2-{(S)-4-[2-(3-Fluoro-2-methyl-benzyl)-1-phenyl-indolizine-3-carbonyl]-piperazin-2-yl}-acetylamino)-2,2-dimethyl-propionamide] |
| 208 to 210 °C | CNC(=O)c1cnn2c(C(=O)N3CCNCC3)c(Cc3cccc(F)c3C)c(-c3ccccc3)c2c1 (as salt: hydrochloride) [Example 8, 6-(3-Fluoro-2-methyl-benzyl)-5-phenyl-7-(piperazine-1-carbonyl)-pyrrolo[1,2-b]pyridazin-3-carboxylic acid methylamide] |
| 140 to 142 °C | Cc1c(F)cccc1Cc1c(-c2ccccc2)c2cccnn2c1C(=O)N1CCNCC1 (as salt: hydrochloride) [Example 9, [6-(3-Fluoro-2-methyl-benzyl)-5-phenyl-pyrrolo[1,2-b]pyridazin-7-yl]-piperazin-1-yl-methanone] |
| 206 to 208 °C | Cc1c(F)cccc1Cc1c(-c2ccccc2)c2cc(O)cnn2c1C(=O)N1CCNCC1 (as salt: hydrochloride) [Example 10, [6-(3-Fluoro-2-methyl-benzyl)-3-hydroxy-5-phenyl-pyrrolo[1,2-b]pyridazin-7-yl]-piperazin-1-yl-methanone] |
| 273 °C | CNC(=O)c1ccc2c(-c3ccccc3)c(Cc3cccc(F)c3C)c(C(=O)N3CCNCC3)n2c1 (as salt: hydrochloride) [Example 13, 2-(3-Fluoro-2-methyl-benzyl)-1-phenyl-3-(piperazine-1-carbonyl)-indolizine-6-carboxylic acid methylamide] |
| 302 °C | Cc1cccc(C)c1Cc1c(-c2ccccc2)c2ccccn2c1C(=O)N1CCN[C@H](C)C1 (as salt: hydrochloride) [Example 17, [2-(2,6-Dimethyl-benzyl)-1-phenyl-indolizin-3-yl)-((R)-3-methyl-piperazin-1-yl)-methanone] |
| 180 to 181 °C | Cc1c(F)cccc1Cc1c(-c2ccccc2)c2ccccn2c1C(=O)N1CCN[C@@H](CO)C1 (as salt: hydrochloride) [Example 22] |
| 127 to 129 °C | CNC(=O)CC[C@H]1CN(C(=O)c2c(Cc3cccc(F)c3C)c(-c3ccccc3)c3ccccn23)CCN1 (as salt: hydrochloride) [Example 26] |
| 112 to 113 °C | COC(=O)CCNC(=O)C[C@H]1CN(C(=O)c2c(Cc3cccc(F)c3C)c(-c3ccccc3)c3ccccn23)CCN1 (as salt: hydrochloride) [Example 30] |
| 166 to 168 °C | Cc1c(F)cccc1Cc1c(-c2ccccc2)c2ccccn2c1C(=O)N1CCN[C@@H](CC(=O)NCCS(C)(=O)=O)C1 (as salt: hydrochloride) [Example 31] |
| 181 to 182 °C | Cc1c(F)cccc1Cc1c(-c2ccccc2)c2ccccn2c1C(=O)N1CCN[C@@H](CC(=O)NCc2cccnc2)C1 (as salt: hydrochloride) [Example 32] |
| 124 to 125 °C | COc1ccn2c(C(=O)N3CCNCC3)c(Cc3cccc(F)c3C)c(-c3ccccc3)c2c1 (as salt: hydrochloride) [Example 35, [2-(3-fluoro-2-methyl-benzyl)-7-methoxy-1-phenyl-indolizin-3-yl]-piperazin-1-yl-methanone] |
| 164 to 166 °C | Cc1c(F)cccc1Cc1c(-c2ccccc2)c2cc(C(=O)N3CCCCC3)cnn2c1C(=O)N1CCN[C@@H](CC(=O)NCCO)C1 (as salt: hydrochloride) [Example 39] |
| 151 to 153 °C | CCNC(=O)c1cnn2c(C(=O)N3CCN[C@@H](CC(=O)NCCOC)C3)c(Cc3cccc(F)c3C)c(-c3ccccc3)c2c1 (as salt: hydrochloride) [Example 42, 6-(3-fluoro-2-methyl-benzyl)-7-{(S)-3-[(2-methoxy-ethylcarbamoyl)-methyl]-piperazine-1-carbonyl}-5-phenyl-pyrrolo[1,2-b]pyridazine-3-carboxylic acid ethylamide] |
| 130 to 132 °C | COCCN(C)C(=O)C[C@H]1CN(C(=O)c2c(Cc3cccc(F)c3C)c(-c3ccccc3)c3cc(C(=O)N(C)C)cnn23)CCN1 (as salt: hydrochloride) [Example 46] |
